Assays:
BACE2 = target: T1, BACE2 (Rattus norvegicus, UniProt Q6IE75); experiment: Assay for BACE inhibition by measuring cellular TMEM27 cleavage; type: cell-based; conditions: INS-TMEM27 cells (INS1e-derived); shed TMEM27 by ELISA; read-out: BACE2 cell act. IC50
T1 construct: endogenous cellular BACE2 in the Ins1e rat cell line; endogenous in cells; host or cells: INS-TMEM27 (INS1e-derived rat cell line with TetOn-inducible full-length hTMEM27)
T1 sequence (Q6IE75 63-514): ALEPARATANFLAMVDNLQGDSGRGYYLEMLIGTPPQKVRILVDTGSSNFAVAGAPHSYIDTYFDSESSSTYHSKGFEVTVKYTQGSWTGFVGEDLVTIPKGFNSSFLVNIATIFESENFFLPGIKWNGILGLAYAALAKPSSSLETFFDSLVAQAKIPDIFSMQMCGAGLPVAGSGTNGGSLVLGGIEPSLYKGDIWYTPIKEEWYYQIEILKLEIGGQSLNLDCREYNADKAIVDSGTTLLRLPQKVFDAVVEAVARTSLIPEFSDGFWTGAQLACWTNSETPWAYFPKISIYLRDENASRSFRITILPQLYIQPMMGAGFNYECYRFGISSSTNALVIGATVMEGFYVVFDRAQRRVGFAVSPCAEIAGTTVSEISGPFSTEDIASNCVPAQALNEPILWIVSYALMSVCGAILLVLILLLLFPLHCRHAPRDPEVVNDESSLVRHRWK
Source text: Assay for BACE Inhibition by Measuring Cellular TMEM27 Cleavage:
The assay uses the principle of inhibition of human TMEM27 cleavage by endogenous cellular BACE2 in the Ins1e rat cell line and shedding from the cell surface into the culture medium, followed by detection in an ELISA assay. Inhibition of BACE2 prevents the cleavage and shedding in a dose-dependent manner.
The stable cell line “INS-TMEM27” represents an INS1e-derived cell line with inducible expression (using the TetOn system) of full-length hTMEM27 in a doxycycline-dependent manner. The cells are cultured throughout the experiment in RPMI1640+Glutamax (Invitrogen) Penicillin/Streptomycin, 10% Fetal bovine serum, […] pyruvate, […] beta-mercatptoethanol, 100 micrograms/ml G418 and 100 microgram/ml hygromycin and are grown inadherent culture at 37° C. in a standard CO2 cell culture incubator. INS-TMEM27 cells are seeded in 96-well plates. After 2 days in culture, BACE2 inhibitor is added in a range of concentrations as required by the assay and after a further two hours, doxycycline is added to a final concentration of 500 ng/ml. The cells are incubated for a further 46 hours and the supernatant harvested for detection of shed TMEM27.
An ELISA assay (using a pair of mouse anti-human-TMEM27 antibodies, raised against the extracellular domain of TMEM27) is used for detection of TMEM27 in the culture medium. An EC50 for BACE2 inhibition is calculated using the ELISA readout for each inhibitor concentration with standard curve-fitting software such as XLFit for the Excel spreadsheet program.

in vivo effect = conditions: po; % of control @ 30 mg/kg p.o.
[1] = target: T2, recombinant human cathepsin E (Homo sapiens, UniProt P14091); experiment: Cathepsin E fluorescent substrate kinetic assay; type: biochemical; conditions: pH 4.5
T2 construct: purchased R&D Systems
T2 sequence (P14091 54-396): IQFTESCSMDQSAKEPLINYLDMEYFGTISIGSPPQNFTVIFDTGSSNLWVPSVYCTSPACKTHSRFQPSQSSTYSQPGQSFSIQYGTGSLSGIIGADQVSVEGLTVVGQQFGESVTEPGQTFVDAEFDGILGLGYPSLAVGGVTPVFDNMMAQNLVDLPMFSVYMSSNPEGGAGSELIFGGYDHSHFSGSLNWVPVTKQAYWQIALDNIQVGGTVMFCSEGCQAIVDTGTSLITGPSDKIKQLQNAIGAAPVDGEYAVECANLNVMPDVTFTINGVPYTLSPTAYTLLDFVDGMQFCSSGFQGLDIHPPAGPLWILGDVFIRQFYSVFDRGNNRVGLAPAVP
Source text: (§1) Cathepsin D and Cathepsin E Fluorescent Substrate Kinetic Assays
The MR121 fluorescence assays described below are based on the fact that MR121 forms a non-fluorescent ground state complex with tryptophan. In solution this formation occurs at millimolar concentrations of tryptophan. The mechanism can be used to design a generic biochemical assay for proteases. […] In absence of protease activity, the substrates remain intact and the MR121 fluorescence is reduced by the high local Trp-concentration. If the substrates are cleaved by the enzymes the MR121 fluorescence is recovered.
The fluorescent substrate cathepsin D and cathepsin E kinetic assays were performed at room temperature in 384-well microtiter plates (black with clear flat bottom, non binding surface plates from Corning) in a final volume of 51 μl. The test compounds were serially diluted in DMSO (15 concentrations, 1/3 dilution steps) and 1 μl of diluted compounds were mixed for 10 min with 40 μl of cathepsin D (from human liver, Calbiochem) diluted in assay buffer (100 mM sodium acetate, 0.05% BSA, pH 5.5; final concentration: 200 nM) or with 40 μl of recombinant human cathepsin E (R&D Systems) diluted in assay buffer (100 mM sodium acetate, 0.05% BSA, pH 4.5; final concentration: 0.01 nM). […] The enzymatic reaction was followed in a plate: vision reader (Perkin Elmer) (excitation wavelength: 630 nm; emission: 695 nm) for at least 30 minutes in a kinetic measurement detecting an increase of MR121 fluorescence during the reaction time. The slope in the linear range of the kinetic was calculated and the IC50 of the test compounds were determined using a four parameter equation for curve fitting.

[2] = target: T3, cathepsin D (from human liver) (Homo sapiens, UniProt P07339); experiment: Cathepsin D fluorescent substrate kinetic assay; type: biochemical; conditions: pH 5.5
T3 construct: cathepsin D (from human liver, Calbiochem); purchased Calbiochem; host or cells: human liver
T3 sequence (P07339 65-412): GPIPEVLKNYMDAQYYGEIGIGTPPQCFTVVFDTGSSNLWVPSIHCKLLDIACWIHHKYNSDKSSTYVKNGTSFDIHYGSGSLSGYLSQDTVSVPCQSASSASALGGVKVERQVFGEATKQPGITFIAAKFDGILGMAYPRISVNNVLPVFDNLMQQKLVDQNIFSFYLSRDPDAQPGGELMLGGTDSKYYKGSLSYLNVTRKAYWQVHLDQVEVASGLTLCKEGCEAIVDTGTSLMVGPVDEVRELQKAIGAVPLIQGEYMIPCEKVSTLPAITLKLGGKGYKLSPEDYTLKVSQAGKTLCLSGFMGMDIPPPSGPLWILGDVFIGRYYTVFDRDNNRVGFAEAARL
Source text: as §1
The MR121 fluorescence assays described below are based on the fact that MR121 forms a non-fluorescent ground state complex with tryptophan. In solution this formation occurs at millimolar concentrations of tryptophan. The mechanism can be used to design a generic biochemical assay for proteases. A substrate peptide is labeled at the N-terminus with tryptophan and at the C-terminus with the fluorophore MR121 (for cathepsin D the 10 amino acid peptide […]-MR121 was used; for cathepsin E, MR121-[…] was used). In absence of protease activity, the substrates remain intact and the MR121 fluorescence is reduced by the high local Trp-concentration. If the substrates are cleaved by the enzymes the MR121 fluorescence is recovered.
The fluorescent substrate cathepsin D and cathepsin E kinetic assays were performed at room temperature in 384-well microtiter plates (black with clear flat bottom, non binding surface plates from Corning) in a final volume of 51 μl. The test compounds were serially diluted in DMSO (15 concentrations, 1/3 dilution steps) and 1 μl of diluted compounds were mixed for 10 min with 40 μl of cathepsin D (from human liver, Calbiochem) diluted in assay buffer (100 mM sodium acetate, 0.05% BSA, pH 5.5; final concentration: 200 nM) or with 40 μl of recombinant human cathepsin E (R&D Systems) diluted in assay buffer (100 mM sodium acetate, 0.05% BSA, pH 4.5; final concentration: 0.01 nM). After addition of 10 μl of the cathepsin D substrate […]-MR121 diluted in cathepsin D assay buffer (final concentration: 300 nM) or 10 µl of the cathepsin E substrate MR121-[…] diluted in cathepsin E assay buffer (final concentration: 300 nM), the plates were strongly shaken for 2 minutes. The enzymatic reaction was followed in a plate: vision reader (Perkin Elmer) (excitation wavelength: 630 nm; emission: 695 nm) for at least 30 minutes in a kinetic measurement detecting an increase of MR121 fluorescence during the reaction time. The slope in the linear range of the kinetic was calculated and the IC50 of the test compounds were determined using a four parameter equation for curve fitting.

BACE1 = target: T4, BACE1 (Homo sapiens, UniProt P56817); experiment: Cellular Aβ-lowering assay (Aβ40 ELISA); type: cell-based; conditions: HEK293 cells stably expressing human APP695; Aβ40 in culture supernatant; read-out: BACE1 cell act. Aβ40 IC50
T4 construct: Human HEK293 cells which are stably transfected with a vector expressing a cDNA of the human APP wt gene (APP695); endogenous in cells; host or cells: HEK293 stably transfected with human APP695 wt
T4 sequence (P56817 46-501): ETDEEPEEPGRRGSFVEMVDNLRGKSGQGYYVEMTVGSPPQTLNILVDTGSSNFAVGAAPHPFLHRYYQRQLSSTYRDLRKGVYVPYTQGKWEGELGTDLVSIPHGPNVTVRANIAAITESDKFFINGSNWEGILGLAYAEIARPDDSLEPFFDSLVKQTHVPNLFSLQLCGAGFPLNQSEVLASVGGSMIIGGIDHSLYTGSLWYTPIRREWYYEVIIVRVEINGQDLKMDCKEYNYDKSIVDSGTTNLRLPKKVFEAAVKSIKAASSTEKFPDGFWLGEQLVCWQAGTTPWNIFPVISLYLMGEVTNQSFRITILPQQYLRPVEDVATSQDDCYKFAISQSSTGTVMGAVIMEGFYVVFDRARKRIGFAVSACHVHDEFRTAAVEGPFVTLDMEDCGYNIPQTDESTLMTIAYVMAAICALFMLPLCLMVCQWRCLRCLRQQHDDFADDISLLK
Summary of the method: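 Aβ40 in supernatant measured by sandwich ELISA (TMB, 450 nm) and quantified against a pure Aβ peptide standard curve.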

Row | Compound | IC50 (BACE2) | IC50 [1] | IC50 [2] | IC50 (BACE1) | response vs control in vivo at 30 mg/kg (in vivo effect)
1 | C[C@]1(c2cc(NC(=O)c3ccc(C#N)cn3)ccc2F)N=C(N)OCC1(F)F [Example 11, 5-Cyano-pyridine-2-carboxylic acid [3-((R)-2-amino-5,5-difluoro-4-methyl-5,6-dihydro-4H-[1,3]oxazin-4-yl)-4-fluoro-phenyl]-amide] | 74 nM | 73000 nM | 69000 nM | – | < 50%
2 | Cc1nc(C(=O)Nc2ccc(F)c([C@@]3(C)N=C(N)OCC3(F)F)c2)co1 [Example 58, 2-Methyl-oxazole-4-carboxylic acid [3-((R)-2-amino-5,5-difluoro-4-methyl-5,6-dihydro-4H-[1,3]oxazin-4-yl)-4-fluoro-phenyl]-amide] | 25 nM | – | – | 15 nM | –
3 | Cc1nc(C(=O)Nc2ccc(F)c([C@@]3(C)N=C(N)OCC3(F)F)c2)c(C)o1 [Example 59, 2,5-Dimethyl-oxazole-4-carboxylic acid [3-((R)-2-amino-5,5-difluoro-4-methyl-5,6-dihydro-4H-[1,3]oxazin-4-yl)-4-fluoro-phenyl]-amide] | 97 nM | – | – | 43 nM | –
4 | Cc1nc(C(=O)Nc2ccc(F)c([C@@]3(C)N=C(N)OCC3(F)F)c2)c(C(F)(F)F)o1 [Example 60, 2-Methyl-5-trifluoromethyl-oxazole-4-carboxylic acid [3-((R)-2-amino-5,5-difluoro-4-methyl-5,6-dihydro-4H-[1,3]oxazin-4-yl)-4-fluoro-phenyl]-amide] | 367 nM | – | – | 88 nM | –
5 | Cn1ccc(C(=O)Nc2ccc(F)c([C@@]3(C)N=C(N)OCC3(F)F)c2)n1 [Example 63, 1-Methyl-1H-pyrazole-3-carboxylic acid [3-((R)-2-amino-5,5-difluoro-4-methyl-5,6-dihydro-4H-[1,3]oxazin-4-yl)-4-fluoro-phenyl]-amide] | 113 nM | – | – | 110 nM | –
6 | C[C@]1(c2cc(NC(=O)c3[nH]ncc3Cl)ccc2F)N=C(N)OCC1(F)F [Example 65, 4-Chloro-2H-pyrazole-3-carboxylic acid [3-((R)-2-amino-5,5-difluoro-4-methyl-5,6-dihydro-4H-[1,3]oxazin-4-yl)-4-fluoro-phenyl]-amide] | 543 nM | – | – | 404 nM | –

The next lines start with results.

Row | IC50 (BACE2) | IC50 [1] | IC50 [2] | IC50 (BACE1) | Compound | response vs control in vivo at 30 mg/kg (in vivo effect)
7 | 465 nM | – | – | 622 nM | Cc1cn[nH]c1C(=O)Nc1ccc(F)c([C@@]2(C)N=C(N)OCC2(F)F)c1 [Example 66, 4-Methyl-2H-pyrazole-3-carboxylic acid [3-((R)-2-amino-5,5-difluoro-4-methyl-5,6-dihydro-4H-[1,3]oxazin-4-yl)-4-fluoro-phenyl]-amide] | –
8 | 230 nM | – | – | 927 nM | C[C@]1(c2cc(NC(=O)c3nn(CC(F)F)cc3Cl)ccc2F)N=C(N)OCC1(F)F [Example 68, 4-Chloro-1-(2,2-difluoro-ethyl)-1H-pyrazole-3-carboxylic acid [3-((R)-2-amino-5,5-difluoro-4-methyl-5,6-dihydro-4H-[1,3]oxazin-4-yl)-4-fluoro-phenyl]-amide] | –
9 | 1010 nM | – | – | 1490 nM | C[C@]1(c2cc(NC(=O)C3(C(F)(F)F)CC3)ccc2F)N=C(N)OCC1(F)F [Example 75, 1-Trifluoromethyl-cyclopropanecarboxylic acid [3-((R)-2-amino-5,5-difluoro-4-methyl-5,6-dihydro-4H-[1,3]oxazin-4-yl)-4-fluoro-phenyl]-amide] | –
10 | 1420 nM | – | – | 1050 nM | C[C@@](O)(C(=O)Nc1ccc(F)c([C@@]2(C)N=C(N)OCC2(F)F)c1)C(F)(F)F [Example 76, (R)—N-[3-((R)-2-Amino-5,5-difluoro-4-methyl-5,6-dihydro-4H-[1,3]oxazin-4-yl)-4-fluoro-phenyl]-3,3,3-trifluoro-2-hydroxy-2-methyl-propionamide 2,2,2-trifluoroacetate] | –
